In patent US6737383B1, “Herbicidal oxadiazolidines” (priority 1999, dated 2004):

Tests used:
blackgrass = test: Test B pre/postemergence blackgrass; format: in vivo, Alopecurus myosuroides
Procedure, shortened: (§1)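 Response is a visual 0-to-10 score relative to untreated plants, where 0 means no effect and 10 means complete control, taken twelve to sixteen days after application. Treatments went onto soil at planting and onto foliage of 1- to 4-leaf plants, using a surfactant-containing non-phytotoxic solvent.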

cocklebur = test: Test B pre/postemergence cocklebur; format: in vivo, Xanthium strumarium
Procedure, shortened: as §1

corn = test: Test B pre/postemergence corn; format: in vivo, Zea mays
Procedure, shortened: as §1

crabgrass = test: Test B pre/postemergence crabgrass; format: in vivo, Digitaria sanguinalis
Procedure, shortened: as §1

morningglory = test: Test B pre/postemergence morningglory; format: in vivo, Ipomoea hederacea; details: for Plant response rating, Morningglory: scale of 0 to 10 where 0 is no effect and 10 is complete control
Procedure, shortened: as §1

pigweed = test: Test B pre/postemergence pigweed; format: in vivo, Amaranthus retroflexus; details: for Plant response rating, Redroot pigweed: scale of 0 to 10 where 0 is no effect and 10 is complete control
Procedure, shortened: as §1

rape = test: Test B pre/postemergence rape; format: in vivo, Brassica napus; details: for Plant response rating, Rape: scale of 0 to 10 where 0 is no effect and 10 is complete control
Procedure, shortened: as §1

sugar beet = test: Test B pre/postemergence sugar beet; format: in vivo, Beta vulgaris; details: for Plant response rating, Sugarbeets: scale of 0 to 10 where 0 is no effect and 10 is complete control
Procedure, shortened: as §1

velvetleaf = test: Test B pre/postemergence velvetleaf; format: in vivo, Abutilon theophrasti; details: for Plant response rating, Velvetleaf: scale of 0 to 10 where 0 is no effect and 10 is complete control
Procedure, shortened: as §1

wheat = test: Test B pre/postemergence wheat; format: in vivo, Triticum aestivum; details: for Plant response rating, Wheat: scale of 0 to 10 where 0 is no effect and 10 is complete control
Procedure, shortened: as §1

wild oat = test: Test B pre/postemergence wild oat; format: in vivo, Avena fatua; details: for Plant response rating, Wild oats: scale of 0 to 10 where 0 is no effect and 10 is complete control
Procedure, shortened: as §1

purple nutsedge = test: Test B pre/postemergence purple nutsedge; format: in vivo, Cyperus rotundus; details: for Plant response rating, Nutsedge: scale of 0 to 10 where 0 is no effect and 10 is complete control
Procedure, shortened: as §1

rice = test: Test B flood test rice; format: in vivo, Oryza sativa
Procedure, shortened: (§2)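 Flood test on plants grown to the 2-leaf stage; treated plants kept in greenhouse twelve to sixteen days, then visually rated against controls on a 0 (no effect) to 10 (complete control) scale.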

smallflower flatsedge = test: Test B flood test smallflower flatsedge; format: in vivo, Cyperus difformis
Procedure, shortened: as §2

duck salad = test: Test B flood test duck salad; format: in vivo, Heteranthera limosa
Procedure, shortened: as §2

bamyardgrass = test: Test B flood test barnyardgrass; format: in vivo, Echinochloa crus-galli
Procedure, shortened: as §2

[1] = Postemergence, Rate 250 g/ha, scale 0 to 10
[2] = Postemergence, Rate 500 g/ha, scale of 0 to 10 where 0 is no effect and 10 is complete control
[3] = Preemergence, Rate 62 g/ha, scale of 0 to 10 where 0 is no effect and 10 is complete control
[4] = Preemergence, Rate 125 g/ha, scale of 0 to 10 where 0 is no effect and 10 is complete control
[5] = Preemergence, Rate 250 g/ha, scale 0 to 10, 0 is no effect, 10 is complete control
[6] = Preemergence, Rate 500 g/ha, scale 0 to 10, 0 is no effect, 10 is complete control
[7] = Rate 62 g/ha, Postemergence, scale 0 to 10 (0 no effect, 10 complete control)
[8] = Rate 125 g/ha, Postemergence, scale 0 to 10, 0 is no effect, 10 is complete control
[9] = Rate 62 g/ha, flood test species, Pre-emergence, visual evaluation after twelve to sixteen days
[10] = Rate 125 g/ha, under heading Pre-emergence, flood test species, visual evaluation after twelve to sixteen days
[11] = Rate 250 g/ha, Pre-emergence (flood test species), scale 0 to 10, 0 is no effect, 10 is complete control
[12] = Rate 500 g/ha, Pre-emergence, flood test species, scale 0 to 10 (0 no effect, 10 complete control)

How did the “Blackgrass plant response rating” value (blackgrass; [1]) turn out when `CC(C)N(C(=O)n1oc(=O)n(C(C)C(=O)N(C)C)c1=O)c1ccc(F)cc1` (centres unmarked) [Compound 478] was run?
The value was 8.

And the “Blackgrass plant response rating” value (blackgrass; [2])?
The value was 8.

What about the “Plant response rating, Blackgrass” value (blackgrass; [3]) of the same molecule?
The value was 4.

And the “Plant response rating, Blackgrass” value (blackgrass; [4])?
Its value is 8.

And the “Blackgrass plant response rating” value (blackgrass; [5])?
The value was 10.

What about the “Blackgrass plant response rating” value (blackgrass; [6]) of the same molecule?
The value was 10.

And the “Blackgrass plant response rating” value (blackgrass; [7])?
Its value is 0.

What about the “Blackgrass plant response rating” value (blackgrass; [8]) of the same molecule?
Its value is 2.

What about the “Cocklebur plant response rating” value (cocklebur; [1]) of the same molecule?
Its value is 0.

And the “Cocklebur plant response rating” value (cocklebur; [2])?
Its value is 0.

And the “Plant response rating, Cocklebur” value (cocklebur; [3])?
Its value is 0.

What about the “Plant response rating, Cocklebur” value (cocklebur; [4]) of the same molecule?
The value was 0.

And the “Cocklebur plant response rating” value (cocklebur; [5])?
The value was 0.

What about the “Cocklebur plant response rating” value (cocklebur; [6]) of the same molecule?
The value was 0.

And the “Cocklebur plant response rating” value (cocklebur; [7])?
The value was 0.

What about the “Cocklebur plant response rating” value (cocklebur; [8]) of the same molecule?
The value was 0.

And the “Corn plant response rating” value (corn; [1])?
The value was 0.

And the “Corn plant response rating” value (corn; [2])?
The value was 2.

What about the “Plant response rating, Corn” value (corn; [3]) of the same molecule?
The value was 0.

And the “Plant response rating, Corn” value (corn; [4])?
Its value is 0.

What about the “Corn plant response rating” value (corn; [5]) of the same molecule?
The value was 0.

And the “Corn plant response rating” value (corn; [6])?
Its value is 0.

And the “Corn plant response rating” value (corn; [7])?
Its value is 0.

And the “Corn plant response rating” value (corn; [8])?
The value was 0.

What about the “Crabgrass plant response rating” value (crabgrass; [1]) of the same molecule?
Its value is 8.

What about the “Crabgrass plant response rating” value (crabgrass; [2]) of the same molecule?
Its value is 9.

And the “Plant response rating, Crabgrass” value (crabgrass; [3])?
Its value is 8.

And the “Plant response rating, Crabgrass” value (crabgrass; [4])?
Its value is 9.

And the “Crabgrass plant response rating” value (crabgrass; [5])?
Its value is 10.

And the “Crabgrass plant response rating” value (crabgrass; [6])?
The value was 10.

What about the “Crabgrass plant response rating” value (crabgrass; [7]) of the same molecule?
The value was 2.

What about the “Crabgrass plant response rating” value (crabgrass; [8]) of the same molecule?
Its value is 3.

And the “Morningglory plant response rating” value (morningglory; [1])?
The value was 7.

And the “Plant response rating, Morningglory” value (morningglory; Preemergence, Rate 62 g/ha)?
Its value is 0.

And the “Plant response rating, Morningglory” value (morningglory; Preemergence, Rate 125 g/ha)?
Its value is 0.

What about the “Morningglory plant response rating” value (morningglory; [5]) of the same molecule?
Its value is 1.

What about the “Morningglory plant response rating” value (morningglory; [6]) of the same molecule?
The value was 2.

And the “Morningglory plant response rating” value (morningglory; [7])?
Its value is 3.

What about the “Morningglory plant response rating” value (morningglory; [8]) of the same molecule?
Its value is 3.

And the “Redroot pigweed plant response rating” value (pigweed; [1])?
The value was 3.

And the “Plant response rating, Redroot pigweed” value (pigweed; Preemergence, Rate 62 g/ha)?
The value was 8.

What about the “Plant response rating, Redroot pigweed” value (pigweed; Preemergence, Rate 125 g/ha) of the same molecule?
The value was 8.

What about the “Redroot pigweed plant response rating” value (pigweed; [5]) of the same molecule?
Its value is 9.

And the “Redroot pigweed plant response rating” value (pigweed; [6])?
Its value is 10.

What about the “Redroot pigweed plant response rating” value (pigweed; [7]) of the same molecule?
Its value is 1.

What about the “Redroot pigweed plant response rating” value (pigweed; [8]) of the same molecule?
The value was 2.

And the “Rape plant response rating” value (rape; [1])?
Its value is 0.

What about the “Plant response rating, Rape” value (rape; Preemergence, Rate 62 g/ha) of the same molecule?
Its value is 0.

And the “Plant response rating, Rape” value (rape; Preemergence, Rate 125 g/ha)?
Its value is 1.

And the “Rape plant response rating” value (rape; [5])?
The value was 4.

What about the “Rape plant response rating” value (rape; [6]) of the same molecule?
Its value is 6.

And the “Rape plant response rating” value (rape; [7])?
The value was 0.

And the “Rape plant response rating” value (rape; [8])?
Its value is 0.

And the “Sugarbeets plant response rating” value (sugar beet; [1])?
The value was 0.

And the “Plant response rating, Sugarbeets” value (sugar beet; Preemergence, Rate 62 g/ha)?
The value was 0.

And the “Plant response rating, Sugarbeets” value (sugar beet; Preemergence, Rate 125 g/ha)?
The value was 0.

What about the “Sugarbeets plant response rating” value (sugar beet; [5]) of the same molecule?
The value was 3.

And the “Sugarbeets plant response rating” value (sugar beet; [6])?
The value was 7.

And the “Sugarbeets plant response rating” value (sugar beet; [7])?
Its value is 0.

And the “Sugarbeets plant response rating” value (sugar beet; [8])?
The value was 0.

And the “Velvetleaf plant response rating” value (velvetleaf; [1])?
Its value is 0.

What about the “Plant response rating, Velvetleaf” value (velvetleaf; Preemergence, Rate 62 g/ha) of the same molecule?
The value was 0.

And the “Plant response rating, Velvetleaf” value (velvetleaf; Preemergence, Rate 125 g/ha)?
The value was 1.

And the “Velvetleaf plant response rating” value (velvetleaf; [5])?
Its value is 3.

What about the “Velvetleaf plant response rating” value (velvetleaf; [6]) of the same molecule?
Its value is 7.

What about the “Velvetleaf plant response rating” value (velvetleaf; [7]) of the same molecule?
Its value is 0.

What about the “Velvetleaf plant response rating” value (velvetleaf; [8]) of the same molecule?
Its value is 0.

What about the “Wheat plant response rating” value (wheat; [1]) of the same molecule?
Its value is 2.

And the “Plant response rating, Wheat” value (wheat; Preemergence, Rate 62 g/ha)?
The value was 0.

And the “Plant response rating, Wheat” value (wheat; Preemergence, Rate 125 g/ha)?
The value was 0.

What about the “Wheat plant response rating” value (wheat; [5]) of the same molecule?
The value was 1.

What about the “Wheat plant response rating” value (wheat; [6]) of the same molecule?
The value was 8.

What about the “Wheat plant response rating” value (wheat; [7]) of the same molecule?
The value was 0.

And the “Wheat plant response rating” value (wheat; [8])?
The value was 0.

What about the “Wild oats plant response rating” value (wild oat; [1]) of the same molecule?
The value was 0.

And the “Plant response rating, Wild oats” value (wild oat; Preemergence, Rate 62 g/ha)?
Its value is 2.

What about the “Plant response rating, Wild oats” value (wild oat; Preemergence, Rate 125 g/ha) of the same molecule?
The value was 7.

What about the “Wild oats plant response rating” value (wild oat; [5]) of the same molecule?
Its value is 9.

And the “Wild oats plant response rating” value (wild oat; [6])?
Its value is 10.

And the “Wild oats plant response rating” value (wild oat; [7])?
The value was 0.

And the “Wild oats plant response rating” value (wild oat; [8])?
The value was 0.

What about the “Nutsedge plant response rating” value (purple nutsedge; [1]) of the same molecule?
Its value is 0.

What about the “Plant response rating, Nutsedge” value (purple nutsedge; Preemergence, Rate 62 g/ha) of the same molecule?
The value was 0.

And the “Plant response rating, Nutsedge” value (purple nutsedge; Preemergence, Rate 125 g/ha)?
Its value is 0.

What about the “Nutsedge plant response rating” value (purple nutsedge; [5]) of the same molecule?
The value was 0.

What about the “Nutsedge plant response rating” value (purple nutsedge; [6]) of the same molecule?
Its value is 3.

And the “Nutsedge plant response rating” value (purple nutsedge; [7])?
Its value is 0.

What about the “Nutsedge plant response rating” value (purple nutsedge; [8]) of the same molecule?
The value was 0.

And the “Plant response rating, Rice (0 to 10 scale, 0 is no effect, 10 is complete control)” value (rice; [9])?
Its value is 0.

What about the “Rice plant response rating (0 to 10 scale, 0 is no effect, 10 is complete control)” value (rice; [10]) of the same molecule?
The value was 0.

And the “Rice plant response rating” value (rice; [11])?
The value was 0.

What about the “Rice plant response rating” value (rice; [12]) of the same molecule?
Its value is 0.

What about the “Plant response rating, S. Flatsedge (0 to 10 scale, 0 is no effect, 10 is complete control)” value (smallflower flatsedge; [9]) of the same molecule?
Its value is 0.

What about the “S. Flatsedge plant response rating (0 to 10 scale, 0 is no effect, 10 is complete control)” value (smallflower flatsedge; [10]) of the same molecule?
The value was 0.

What about the “S. Flatsedge plant response rating” value (smallflower flatsedge; [11]) of the same molecule?
Its value is 0.

What about the “S. Flatsedge plant response rating” value (smallflower flatsedge; [12]) of the same molecule?
The value was 0.

What about the “Plant response rating, Ducksalad (0 to 10 scale, 0 is no effect, 10 is complete control)” value (duck salad; [9]) of the same molecule?
The value was 0.

What about the “Ducksalad plant response rating (0 to 10 scale, 0 is no effect, 10 is complete control)” value (duck salad; [10]) of the same molecule?
The value was 0.

And the “Ducksalad plant response rating” value (duck salad; [11])?
The value was 0.

What about the “Ducksalad plant response rating” value (duck salad; [12]) of the same molecule?
Its value is 0.

What about the “Plant response rating, Barnyardgrass (0 to 10 scale, 0 is no effect, 10 is complete control)” value (bamyardgrass; [9]) of the same molecule?
Its value is 0.

What about the “Barnyardgrass plant response rating (0 to 10 scale, 0 is no effect, 10 is complete control)” value (bamyardgrass; [10]) of the same molecule?
The value was 0.

What about the “Barnyardgrass plant response rating” value (bamyardgrass; [11]) of the same molecule?
The value was 0.

What about the “Barnyardgrass plant response rating” value (bamyardgrass; [12]) of the same molecule?
The value was 0.
